# “Also recorded” adds a separate entry of the source. Positions of bridges follow the written chain, without caps; N, C: chain ends. Residues, ends and D or L forms follow the SMILES beside them. No end group written: not given here.
# Experiments:
# IGFBP-3 [1] = experiment: displacement of 125I-IGF-1 from IGFBPs in human serum, size-exclusion chromatography; type: binding; conditions: peptide at 0.2 mM
# Method: This Example tests an IGFBP-3-specific peptide, BP3-15, for its ability to block the binding of ^125I-IGF-1 in human serum. Human serum was incubated with ^125I-IGF-1 ± the peptide and the amount of tracer bound to IGFBPs via size-exclusion chromatography was measured.
# [2] = tested on: human articular cartilage explants; experiment: human articular cartilage explants: matrix breakdown (proteoglycan release); type: cell-based; conditions: peptide 0.1 mg/ml
# Method: The metacarpophalangeal joint of a six-month old pig was cultured as described above for bovine articular cartilage in Example 8. This explant was cultured in media alone or in media with D12K, D12R, or wild-type IGF-1 (at 10 nM) alone or in the presence of IL-1α at 1 ng/ml, as described above. Human explants were from patients undergoing joint replacement surgery. Articular cartilage was harvested, aliquoted (40-45 mg/tube) and cultured as above. […] Fresh media was added on days 0, 1, 2, and 3. Matrix breakdown was determined by measuring the amount of proteoglycans in the media using the DMMB assay as set forth above. Matrix (proteoglycan) synthesis was determined by measuring ^35S-sulfate uptake as set forth above.
# Human articular cartilage explants were cultured in media or treated with IGF-1 by itself or in combination with either BP3-40 or BP3-15 at 0.1 mg/ml as set forth above. Matrix breakdown was determined by measuring the release of proteoglycans into media as described above. Matrix synthesis was determined by counting the amount of ^35S-sulfate incorporated into the cartilage tissue as described above.
# [3] = tested on: human articular cartilage explants; experiment: human articular cartilage explants from diseased joints: matrix synthesis (35S-sulfate uptake); type: cell-based; conditions: IGF-1 40 ng/ml; peptide 0.1 mg/ml
# IGFBP-3 [4] = target: T1, IGFBP-3 (Homo sapiens, UniProt P17936); experiment: BIACORE competition assay: IGFBP-3 binding to immobilized IGF-1; conditions: IGF-1 inhibition; wt = BP3-01-ox
# T1 construct: made in house
# T1 sequence (P17936 28-291): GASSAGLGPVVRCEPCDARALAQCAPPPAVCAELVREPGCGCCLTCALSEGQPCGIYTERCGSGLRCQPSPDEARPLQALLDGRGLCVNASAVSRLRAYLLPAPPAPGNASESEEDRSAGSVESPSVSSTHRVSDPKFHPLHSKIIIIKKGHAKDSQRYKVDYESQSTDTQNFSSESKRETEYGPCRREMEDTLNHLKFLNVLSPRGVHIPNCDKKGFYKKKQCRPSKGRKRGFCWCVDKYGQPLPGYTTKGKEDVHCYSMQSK
# Method: IGF-1 was immobilized on a dextran chip for inhibition assays using a BIACORE™ 2000 surface-plasmon-resonance device (BIAcore, Inc., Piscataway, N.J.) to measure free binding protein. IGF-1 was biotinylated as described above, and injected over a chip to which streptavidin had been coupled (BIAcore, Inc.) to give 400 to 800 RU (response units) of immobilized IGF-1. […] Serial dilutions of peptide were mixed with a constant concentration (40 nM) of IGFBP-3. After incubation for >1 hour at room temperature, an aliquot of 20 μL was injected at a flow rate of 20 μL/min over the IGF-1 chip. Following the injection, a response reading was taken to measure the relative amount of IGFBP-3 bound to the IGF-1.
# IGFBP-1 [5] = target: T2, IGFBP-1 (Homo sapiens, UniProt P08833); experiment: biotinylated-IGFBP-1 ELISA plate assay of IGF-I:IGFBP-1 inhibition; type: binding; set-up: made in house; host or cells: CHO cells
# T2 sequence (P08833 26-259): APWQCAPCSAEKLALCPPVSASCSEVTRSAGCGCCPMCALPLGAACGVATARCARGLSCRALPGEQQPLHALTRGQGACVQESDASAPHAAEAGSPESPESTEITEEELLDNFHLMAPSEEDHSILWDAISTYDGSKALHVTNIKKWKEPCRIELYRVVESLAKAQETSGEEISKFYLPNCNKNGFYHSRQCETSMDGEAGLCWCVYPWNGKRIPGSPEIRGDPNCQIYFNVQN
# Excerpt: A second series of peptides made use of non-natural amino acids to probe whether other structural features such as an added methyl group at the alpha carbon, or an isomer (D-alanine) could affect peptide binding to IGFBP-1.
# BP1-16 (SEQ ID NO:35), a 13-residue version of BP1-01 (lacking the C-terminal Gly), had similar affinity to that of BP1-01. Substitutions at the N-terminus or C-terminus yielded affinity improvements.
# IGFBP-1 [6] = target: T2, IGFBP-1; experiment: KIRA cell-based assay of IGF-like activity displaced by peptides from IGF-1/IGFBP-1; conditions: 2 nM IGF-1, […] IGFBP-1
# Method: A cell-based (KIRA) assay was previously described for measuring the amount of IGF-like activity displaced by peptides from mixtures of IGF-1 and binding proteins (Lowman et al., supra, 1998; WO 98/45427, supra). The KIRA assay was used to compare in vitro bioactivity of BP1-16, BP1-02, BP1-25, and BP1-40. […] IGF-1 and peptide were mixed and added to cells expressing IGF receptor for 30 min, then IGFBP-1 was added for an additional 1 h.
# IGFBP-1 [7] = target: T2, IGFBP-1; experiment: competitive phage ELISA of IGF-1 mutants, IGFBP-1; type: binding; set-up: made in house; host or cells: CHO cells; conditions: phage display, soluble IGFBP-1 competitor
# In short: (§1)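 Alanine-scan IGF-1 mutants on phage competed with soluble IGFBP-1 or IGFBP-3 (threefold dilutions over six logs, from 5 μM and 500 nM respectively) for binding to plates coated with 1 μg/ml of the same protein in PBS pH 7.2. Incubation was 1 h at room temperature in 0.5% Tween 20/PBS. Bound phage was detected by anti-phage/HRP ELISA; IC50 is the mean±SD of at least two clones.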
# IGFBP-3 [8] = target: T1, IGFBP-3; experiment: competitive phage ELISA of IGF-1 mutants, IGFBP-3; type: binding; conditions: phage display, soluble IGFBP-3 competitor
# In short: as §1
# IGFBP-1 [9] = target: T2, IGFBP-1; conditions: cited from earlier work
# IGFBP-1 [10] = experiment: competitive phage ELISA of IGF-1 mutants, IGFBP-1; type: binding, human; conditions: relative IC50 IGFBP-1/relative IC50 IGFBP-3
# In short: as §1
compound,measurement,setting,value
CC(C)C[C@@H]1NC(=O)[C@H](Cc2ccc(O)cc2)NC(=O)[C@H](Cc2c[nH]c3ccccc23)NC(=O)[C@H](CCC(=O)O)NC(=O)[C@H](C)NC(=O)[C@H](C(C)C)NC(=O)[C@@H]2CCCN2C(=O)[C@H](Cc2c[nH]c3ccccc23)NC(=O)[C@@H](NC(=O)[C@@H](NC(=O)[C@H](CCC(=O)O)NC(=O)[C@H](CCC(=O)O)NC(=O)[C@@H](N)CO)C(C)C)CSSC[C@@H](C(=O)N[C@@H](CC(N)=O)C(=O)O)NC1=O [BP3-15] (H-SEEVCWPVAEWYLCN-OH; disulfide 5-14; N-terminus and C-terminus assumed),125I-IGF-1 binding to the 44-KD IGFBPs,IGFBP-3 [1],did not decrease
same,decrease in 125I-IGF-1 associated with the 150-KD IGF/IGFBP-3/ALS complex,IGFBP-3 [1],~42%
same,increase in the amount of free 125I-IGF-1,IGFBP-3 [1],59%
same,"matrix breakdown, IGF-1 in combination with peptide",[2],appeared to enhance the ability of IGF-1 to decrease matrix breakdown
same,"matrix synthesis, IGF-1 in combination with peptide",[3],to stimulate matrix synthesis; also recorded: enhance anabolism
same,IC50 (mut) / IC50 (wt),IGFBP-3 [4],0.36
CRAGPLQWLCEKYF-nh2 (CRAGPLQWLCEKYF-NH2; disulfide 1-10 (inferred)) [BP1-16],"matrix synthesis, IGF-1 in combination with peptide",[3],enhance anabolism
same,Fold potency reduction IC50 (mut) / IC50 (BP1-16),IGFBP-1 [5],-1-
same,EC20 (concentration at which 20% of maximal IGF-1 activity is observed),IGFBP-1 [6],150 to 200 nM
R50A: IGF-1 single alanine mutant,IC50,IGFBP-1 [7],16.2 ± 1.8 nM
same,IC50,IGFBP-3 [8],0.64 ± 0.18 nM
same,decrease in affinity for IGFBP-1,IGFBP-1 [9],3 fold
same,relative specificity,IGFBP-1 [10],2.3
CRAGPLQHLCEKYF [BP1-24],Fold potency reduction IC50 (mut) / IC50 (BP1-16),IGFBP-1 [5],< 10
